Measurements taken from patent publication US6914045B2, “Glycopeptide antibiotics” (Wyeth Holdings Corporation, priority 2001, dated 2005).
≈ marks a conversion by molar mass, not a printed value.

Tests used:
Assay in all cases: in vitro antibacterial evaluation, MIC by broth dilution
Type in all cases: cell-based
Enterococcus sp. = conditions: broth dilution, 18 hours at 35° C.
Procedure, shortened: (§1)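 Inoculum 5×10^5 CFU/mL; concentrations 64 to 0.06 μg/mL; MIC defined as lowest inhibitory level. Conducted by broth dilution under NCCLS guidelines.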

Escherichia coli = conditions: 18 hours at 35° C.
Procedure, shortened: as §1

Staphylococcus sp. = conditions: broth dilution, 18 hours at 35° C.
Procedure, shortened: as §1

Streptococcus sp. = conditions: broth dilution, 18 hours at 35° C.
Procedure, shortened: as §1

MIC Enterococcus avium (GC 4558) (Enterococcus sp.; Enterococcus avium (GC 4558)): 64 µg/mL (≈ 45.7 µM)
MIC Enterococcus faecalis (ATCC 29212) (Enterococcus sp.; Enterococcus faecalis (ATCC 29212)): >64 µg/mL
MIC Enterococcus faecalis (GC 2242) (Enterococcus sp.; Enterococcus faecalis (GC 2242)): 64 µg/mL (≈ 45.7 µM)
MIC Enterococcus faecalis (GC 2691) (Enterococcus sp.; Enterococcus faecalis (GC 2691)): >64 µg/mL
MIC Enterococcus faecalis (GC 3059) (Enterococcus sp.; Enterococcus faecalis (GC 3059)): >64 µg/mL
MIC Enterococcus faecalis (GC 4552) (Enterococcus sp.; Enterococcus faecalis (GC 4552)): >64 µg/mL
MIC Enterococcus faecalis (GC 4553) (Enterococcus sp.; Enterococcus faecalis (GC 4553)): >64 µg/mL
MIC Enterococcus faecalis (GC 4554) (Enterococcus sp.; Enterococcus faecalis (GC 4554)): >64 µg/mL
MIC Enterococcus faecalis (GC 6189) (Enterococcus sp.; Enterococcus faecalis (GC 6189)): 64 µg/mL (≈ 45.7 µM)
MIC Enterococcus faecium (GC 2243) (Enterococcus sp.; Enterococcus faecium (GC 2243)): >64 µg/mL
MIC Enterococcus faecium (GC 4556) (Enterococcus sp.; Enterococcus faecium (GC 4556)): 64 µg/mL (≈ 45.7 µM)
MIC Enterococcus faecium (GC 4557) (Enterococcus sp.; Enterococcus faecium (GC 4557)): 8 µg/mL (≈ 5.72 µM)
MIC Enterococcus faecalis (ATCC 29212) (Enterococcus sp.; strain ATCC 29212): >64 µg/mL
MIC Enterococcus faecalis (GC 2242) (Enterococcus sp.; strain GC 2242): 64 µg/mL (≈ 45.7 µM)
MIC Enterococcus faecium (GC 2243) (Enterococcus sp.; strain GC 2243): >64 µg/mL
MIC Enterococcus faecalis (GC 2691) (Enterococcus sp.; strain GC 2691): >64 µg/mL
MIC Enterococcus faecalis (GC 3059) (Enterococcus sp.; strain GC 3059): >64 µg/mL
MIC Enterococcus faecalis (GC 4552) (Enterococcus sp.; strain GC 4552): >64 µg/mL
MIC Enterococcus faecalis (GC 4553) (Enterococcus sp.; strain GC 4553): >64 µg/mL
MIC Enterococcus faecalis (GC 4554) (Enterococcus sp.; strain GC 4554): >64 µg/mL
MIC Enterococcus faecium (GC 4556) (Enterococcus sp.; strain GC 4556): 64 µg/mL (≈ 45.7 µM)
MIC Enterococcus faecium (GC 4557) (Enterococcus sp.; strain GC 4557): 8 µg/mL (≈ 5.72 µM)
MIC Enterococcus avium (GC 4558) (Enterococcus sp.; strain GC 4558): 64 µg/mL (≈ 45.7 µM)
MIC Enterococcus faecalis (GC 6189) (Enterococcus sp.; strain GC 6189): 64 µg/mL (≈ 45.7 µM)
MIC Escherichia coli (ATCC 25922) (Escherichia coli; strain ATCC 25922): >64 µg/mL
MIC Escherichia coli (GC 4559) (Escherichia coli; strain GC 4559): >64 µg/mL
MIC Escherichia coli (GC 4560) (Escherichia coli; strain GC 4560): 4 µg/mL (≈ 2.86 µM)
MIC Staphylococcus aureus (ATCC 29213) (Staphylococcus sp.): 16 µg/mL (≈ 11.4 µM)
MIC Staphylococcus aureus (GC 1131) (Staphylococcus sp.): 16 µg/mL (≈ 11.4 µM)
MIC Staphylococcus aureus (GC 3051) (Staphylococcus sp.): 16 µg/mL (≈ 11.4 µM)
MIC Staphylococcus aureus (GC 3053) (Staphylococcus sp.): 32 µg/mL (≈ 22.9 µM)
MIC Staphylococcus aureus (GC 4541) (Staphylococcus sp.): 8 µg/mL (≈ 5.72 µM)
MIC Staphylococcus aureus (GC 4542) (Staphylococcus sp.): 16 µg/mL (≈ 11.4 µM)
MIC Staphylococcus aureus (GC 4544) (Staphylococcus sp.): 16 µg/mL (≈ 11.4 µM)
MIC Staphylococcus aureus (GC 4545) (Staphylococcus sp.): 16 µg/mL (≈ 11.4 µM)
MIC Staphylococcus aureus (GC 1131) (Staphylococcus sp.; inoculum 5×10^5 CFU/mL, strain GC 1131): 16 µg/mL (≈ 11.4 µM)
MIC Staphylococcus aureus (ATCC 29213) (Staphylococcus sp.; strain ATCC 29213): 16 µg/mL (≈ 11.4 µM)
MIC Staphylococcus aureus (GC 3051) (Staphylococcus sp.; strain GC 3051): 16 µg/mL (≈ 11.4 µM)
MIC Staphylococcus aureus (GC 3053) (Staphylococcus sp.; strain GC 3053): 32 µg/mL (≈ 22.9 µM)
MIC Staphylococcus aureus (GC 4541) (Staphylococcus sp.; strain GC 4541): 8 µg/mL (≈ 5.72 µM)
MIC Staphylococcus aureus (GC 4542) (Staphylococcus sp.; strain GC 4542): 16 µg/mL (≈ 11.4 µM)
MIC Staphylococcus aureus-SMITH (GC 4543) (Staphylococcus sp.; strain GC 4543): 16 µg/mL (≈ 11.4 µM)
MIC Staphylococcus aureus (GC 4544) (Staphylococcus sp.; strain GC 4544): 16 µg/mL (≈ 11.4 µM)
MIC Staphylococcus aureus (GC 4545) (Staphylococcus sp.; strain GC 4545): 16 µg/mL (≈ 11.4 µM)
MIC Coagulase Negative Staphylococcus (GC 4547) (Staphylococcus sp.; strain GC 4547): 8 µg/mL (≈ 5.72 µM)
MIC Coagulase Negative Staphylococcus (GC 4548) (Staphylococcus sp.; strain GC 4548): 8 µg/mL (≈ 5.72 µM)
MIC Coagulase Negative Staphylococcus (GC 4549) (Staphylococcus sp.; strain GC 4549): 4 µg/mL (≈ 2.86 µM)
MIC Coagulase Negative Staphylococcus (GC 4551) (Staphylococcus sp.; strain GC 4551): 32 µg/mL (≈ 22.9 µM)
MIC Coagulase Negative Staphylococcus (GC 6257) (Staphylococcus sp.; strain GC 6257): 4 µg/mL (≈ 2.86 µM)
MIC Staphylococcus aureus-SMITH (GC 4543) (Staphylococcus sp.; strain SMITH GC 4543): 16 µg/mL (≈ 11.4 µM)
MIC Streptococcus agalactiae (GC 4564) (Streptococcus sp.; Streptococcus agalactiae (GC 4564)): 8 µg/mL (≈ 5.72 µM)
MIC Streptococcus pneumoniae (ATCC 6301) (Streptococcus sp.; Streptococcus pneumoniae (ATCC 6301)): 2 µg/mL (≈ 1.43 µM)
MIC Streptococcus pneumoniae (GC 1894) (Streptococcus sp.; Streptococcus pneumoniae (GC 1894)): 1 µg/mL (≈ 0.715 µM)
MIC Streptococcus pneumoniae (GC 4565) (Streptococcus sp.; Streptococcus pneumoniae (GC 4565)): 4 µg/mL (≈ 2.86 µM)
MIC Streptococcus pyogenes (GC 4563) (Streptococcus sp.; Streptococcus pyogenes (GC 4563)): 8 µg/mL (≈ 5.72 µM)
MIC Streptococcus pneumoniae (ATCC 6301) (Streptococcus sp.; strain ATCC 6301): 2 µg/mL (≈ 1.43 µM)
MIC Streptococcus pneumoniae (GC 1894) (Streptococcus sp.; strain GC 1894): 1 µg/mL (≈ 0.715 µM)
MIC Streptococcus pyogenes (GC 4563) (Streptococcus sp.; strain GC 4563): 8 µg/mL (≈ 5.72 µM)
MIC Streptococcus agalactiae (GC 4564) (Streptococcus sp.; strain GC 4564): 8 µg/mL (≈ 5.72 µM)
MIC Streptococcus pneumoniae (GC 4565) (Streptococcus sp.; strain GC 4565): 4 µg/mL (≈ 2.86 µM)
Structure (SMILES): CC(c1ccccc1)C1NC(=O)CNC(=O)C(CO)NC(=O)C(C(O)C2CNC(=N)N2C2OC(CO)C(O)C(O)C2O)NC(=O)C(C(O)C2CNC(=N)N2)NC(=O)C(Cc2ccc(OC3OC(CO)C(OC4OC5COC(c6cccc(O)c6)OC5C(O)C4O)C(O)C3O)cc2)NC1=O (stereo not drawn) [Example 136, Cyclo[glycyl-β-methylphenylalanyl-O-[4-O-[4,6-O-(3-hydroxybenzylidene)hexopyranosyl]-hexopyranosyl]tyrosyl-3-(2-iminoimidazolidin-4-yl)seryl-3-(3-hexopyranosyl-2-iminoimidazolidin-4-yl)serylseryl]]
MIC Staphylococcus haemolyticus (GC 4546) (Staphylococcus sp.; strain GC 4546): 16 µg/mL (≈ 11.4 µM)
